Assay results from patent US9169255B2, “Caffeinated compounds and compositions for treatment of amyloid diseases and synucleinopathies” (ProteoTech Inc, priority 2011, dated 2015).

Assays:
[1] = target: T1, A53T-mutant human α-synuclein (Homo sapiens, UniProt P37840, A53T); assay: Thioflavin S-positive aggregates in rotenone-treated BE-M17 cells overexpressing A53T α-synuclein; format: cell-based
T1 construct: expressed in transfected cells; host or cells: BE-M17 human neuroblastoma cells
Excerpt: To test the therapeutic potential of the compounds, a cell-based assay was utilized. In this assay, rotenone is used to induce mitochondrial oxidative stress and cause α-synuclein aggregation. The assay utilizes the binding of the fluorescent dye Thioflavin S to structures with high β-sheet content, including α-synuclein fibrils. Therefore, quantitative assessment of the extent of Thioflavin S-positive staining of fixed cells is used to test the ability of the test compounds to inhibit/prevent or decrease the amount of α-synuclein aggregates relative to cells that were treated with rotenone only. This study is presented in the following examples.
BE-M17 human neuroblastoma cells stably transfected with A53T-mutant human α-synuclein were obtained. Cell culture reagents were obtained from Gibco/Invitrogen, and cells were grown in OPTIMEM supplemented with 10% FBS, Penicillin (100 units/ml), Streptomycin (100 μg/ml) and 500 μg/ml G418 as previously described (Ostrerova-Golts et al., J. Neurosci., 20:6048-6054, 2000).
Thioflavin S is commonly used to detect aggregated protein structures in situ, including in brain tissue (Vallet et al., Acta Neuropathol., 83:170-178, 1992), and cultured cells (Ostrerova-Golts et al., J. Neurosci., 20:6048-6054, 2000), whereas Thioflavin T is often used as an in vitro reagent to analyze the aggregation of soluble proteins into fibrils enriched in β-pleated sheet structures (LeVine III, Prot. Sci., 2:404-410, 1993). Therefore, Thioflavin S histochemistry was used on cultured cells to detect aggregates containing a high degree of β-pleated structures that formed in response to oxidative stress-inducing agents (in this case rotenone) as previously described, with minor modifications (Ostrerova-Golts et al., J. Neurosci., 20:6048-6054, 2000). Briefly, for these studies cells were grown on Poly-D-Lysine coated glass slide chambers at approximately 4.5−5.5×10^4 cells/cm^2. After 16-18 hours, cells were treated with 500 nM or 2 μM rotenone (Sigma) or vehicle (0.05% DMSO) as indicated. Within 15 minutes of rotenone (or vehicle) addition, compounds were added at the indicated concentration, or mock-treatment was performed in which cell culture media only (no compound) was added. Identical treatments were repeated after 48 hours. After an additional 24 hours, cells were fixed for 25 minutes in 3% paraformaldehyde. After a PBS wash and a deionized water wash, the cells were incubated with 0.015% Thioflavin S in 50% ethanol for 25 minutes, washed twice for four minutes in 50% ethanol and twice for five minutes in deionized water and then mounted using an aqueous-based mountant designed to protect against photobleaching. Aggregates that bind to Thioflavin S were detected with a fluorescent microscope using a High Q FITC filter set (480 to 535 nm bandwidth) and a 20× objective lens unless otherwise indicated. Between 8 and 20 (usually 16-18) representative images per condition were selected and imaged using Q Capture software by an experimenter who was blinded to treatment conditions. To assess the amount of Thioflavin S-positive aggregates, the total area per field covered by Thioflavin S-positive inclusions was determined by image analysis and quantitation. […] Spurious, non-cell associated fluorescence was manually removed. Unless indicated otherwise, comparisons between groups were made by comparing mean relative amounts of Thioflavin S-positive inclusions for a given treatment condition (i.e. cells treated with rotenone only versus cells treated with rotenone and test compound at a given concentration). Statistical analyses were performed with GraphPad Prism (GraphPad Inc). Differences between means (two samples) were assessed by the Student's t test. Differences among multiple means were assessed by one-factor ANOVA followed by Dunnett's post hoc test, compared to rotenone only treated cells. […]

[2] = Plasma and brain pharmacokinetics in mice after intraperitoneal injection; format: in vivo; conditions: CD-1 female mice, i.p. injection at 50 mg/kg, 7-60 min post-dose; for AUC / Cmax: mouse, plasma, ip
Excerpt: For select compounds in this invention, we have used wild type mice to determine the following plasma pharmacokinetic (PK) parameters: maximal concentration (Cmax), and area under the curve (AUC) as derived from a time versus concentration plot. We have also determined the maximal mouse brain levels, and overall brain exposure over time of select compounds in this invention, expressed as Cmax-brain and AUC-brain, respectively. In order to establish the method, we assessed brain and plasma compound levels over time utilizing 50 mg/kg intraperitoneal (i.p.) injections of 2 control compounds. […] In a typical experiment to assess the compounds in this invention, we used CD-1 female mice with a sample size (n) equal to 4 mice per post-dose time-point (for example, 7, 15, 30, and 60 min post-dose). We chose early time points to assess initial exposure, when we expected plasma and brain exposure to be the high, though we may have missed even higher exposure at earlier time points (between 0 and 7 minutes) since brain and plasma levels were highest in our study at the earliest time point assessed (7 minutes).
For the purpose of these studies, each compound was formulated at 5 mg/mL in 20% polyethylene glycol (PEG)-400 in PBS+0.1% ascorbic acid (w/v). The dose volume was 10 mL/kg of body weight. Mice were administered test compound via intraperitoneal injection, and at about 2-3 minutes before scheduled sacrifice, they were deeply anesthetized with 2.5% avertin. Once anesthetized, whole blood was removed by cardiac puncture, transferred to appropriate EDTA-containing tubes, and immediately chilled on ice. This was followed by complete perfusion of each mouse with >15 ml cold 0.9% saline by cannulation of the left ventricle and clamping of the descending aorta. Brains were harvested, frozen on dry ice and stored at −80° C. for bioanalysis of the test compound. Plasma was extracted from whole blood by standard centrifugation techniques within 1 hour. Compounds were (liquid-liquid) extracted from plasma and brain homogenates using ethyl acetate, followed by HPLC/MS quantitation using methods (i.e. HPLC gradients and mass spectrometry parameters) developed for these novel compounds. All methods established sufficient stability in relevant matrices and solvents, and used internal quantitation controls. Quantitation was achieved using a calibration curve generated with compounds spiked into the appropriate matrix (i.e. 20% PEG-400/PBS+0.1% ascorbic acid). We have established lower limit of quantitative sensitivities of 5-25 ng/ml (plasma) and 5-25 ng/g (brain), sufficient for these studies. Following determination of the brain and plasma concentrations at the various post-dose time points, select plasma (Cmax and AUC) and brain (Cmax-brain and AUC-brain) PK parameters were determined with WinNonLin software (Pharsight Inc). We compared the values determined for the compounds in this invention to the values for the positive control compound that when administered at the same therapeutically relevant route and dose level (i.p. injection at 50 mg/kg) is known to be present in the plasma and the brain at levels sufficient for a biological effect (i.e. reduction of α-synuclein brain levels and improved motor function; data not shown).

Row | reduction of rotenone-induced Thioflavin S-positive aggregates relative to rotenone only-treated cells ([1]; 500 nM rotenone, 2 μM compound) [%] | reduction of rotenone-induced Thioflavin S-positive aggregates relative to rotenone only-treated cells ([1]; 500 nM rotenone, 5 μM compound) [%] | reduction of rotenone-induced Thioflavin S-positive aggregates relative to rotenone only-treated cells ([1]; 2 μM rotenone, 500 nM compound) [%] | reduction of rotenone-induced Thioflavin S-positive aggregates relative to rotenone only-treated cells ([1]; 2 μM rotenone, 2 μM compound) [%] | AUC-brain [2] | Cmax-brain [2] [ng/g] | AUC [2] [ng·h/mL] | Cmax [2] [ng/mL] | reduction of rotenone-induced Thioflavin S-positive aggregates relative to rotenone only-treated cells ([1]; 500 nM rotenone, 500 nM compound) [%] | reduction of rotenone-induced Thioflavin S-positive aggregates relative to rotenone only-treated cells ([1]; 2 μM rotenone, 5 μM compound) [%] | Compound
1 | 54 | 55 | 78 | 79 | – | – | – | – | – | – | Cn1c(=O)c2c(ncn2Cc2ccc(O)c(O)c2)n(Cc2ccc(O)c(O)c2)c1=O [PD-152]
2 | – | – | – | – | 3,048 min*ng/g | 99.5 | 2130 | 3280 | – | – | Cn1cnc2c1c(=O)n(Cc1ccc(O)c(O)c1)c(=O)n2Cc1ccc(O)c(O)c1 [PD-150, 7-Methyl-1,3-bis(3′,4′-dihydroxy)benzylxanthine]
3 | 84 | – | – | 58 | 2,147 min*ng/g | 59.2 | 3540 | 5340 | 52 | 60 | Cn1c(=O)n(Cc2ccc(O)c(O)c2)c(=O)c2c1ncn2Cc1ccc(O)c(O)c1 [PD-151, 3-Methyl-1,7-bis(3′,4′-dihydroxybenzyl)xanthine]
